Data from article PMC9009073, “Transcriptome Analysis of Stephania tetrandra and Characterization of Norcoclaurine-6-O-Methyltransferase Involved in Benzylisoquinoline Alkaloid Biosynthesis” (Frontiers in Plant Science, 2022).

Tested on: St6OMT2
Test: UPLC quantification of (S)-coclaurine formed; Hill function fit
Type: biochemical, Stephania tetrandra
Conditions: co-substrate S-adenosyl-L-methionine (1 mM in standard assay); 37°C; PBS; substrate 10–200 μM

Km: 28.2 µM
Compound: Oc1ccc(C[C@@H]2NCCc3cc(O)c(O)cc32)cc1 [(S)-norcoclaurine]
